The text below walks through data of patent US20120171531A1, “REDOX FLOW BATTERY” (Samsung Electronics Co., Ltd., priority 2010, published 2012).

A short description of the series: Viscosity of prepared electrolyte solution, Rheometer (AR2000). It is filed as physicochemical. Conditions: solvent PC. On the procedure: The solubilities of each metal-ligand coordination compound obtained in Preparation Examples 1 through 3 in solvents and viscosity of prepared electrolyte solutions were measured and the results are shown in Table 1. Viscosities were measured using a Rheometer (AR2000).

Structures are written as SMILES.

With `F[B-](F)(F)F.F[B-](F)(F)F.[Fe+2].c1ccc(-c2ccccn2)nc1.c1ccc(-c2ccccn2)nc1.c1ccc(-c2ccccn2)nc1` [Preparation Example 1, Fe^2+—(bpy)3 [BF4]2], the “Viscosity (cps)” value came to 4.8 cps.

As to `F[B-](F)(F)F.F[B-](F)(F)F.[Ni+2].c1ccc(-c2ccccn2)nc1.c1ccc(-c2ccccn2)nc1.c1ccc(-c2ccccn2)nc1` [Preparation Example 2, Ni^2+—(bpy)3 [BF4]2], the “Viscosity (cps)” value is listed as 4.9 cps.
